US20220395497A1, “Cancer Treatment Using Camptothecin Derivatives” (priority 2019, published 2022)
“And” between values parts separate entries of the source, which are not always exact repeats. Equal values may be shown once. “Also recorded” adds a separate entry of the source.

Test system: adults with recurrence of glioblastoma multiforme (GBM)
Experiment: Phase 2 open-label study of IV AR-67 (7.5 mg/m2 once daily for 5 days, 21-day cycle) in recurrent GBM: adverse events (Safety Population, NCI-CTCAE). Cohort 1 = not received or not recently failed (>90 days) bevacizumab; Cohort 2 = recently (<90 days) failed bevacizumab
Format: in vivo, human
Details: for 1 related SAE, patients (%) / related SAE, No of Events / related TEAE, No of Events / ≥1 related TEAE, patients (%): possibly, probably, or definitely related
Method: This solution was reconstituted in dextrose 5% in water to a final concentration between 0.06-0.6 mg/mL Drug (7.5 mg/m2) was to be given until the onset of toxicity requiring discontinuation or tumor progression. Tumor response was assessed=14d after every second cycle and before every third cycle using MRI.

[1] = reGBM, single agent, infusion, N = 45

CC[C@@]1(O)C(=O)OCc2c1cc1n(c2=O)Cc2c-1nc1ccc(O)cc1c2[Si](C)(C)C(C)(C)C [AR-67, (205)-7-tert-butyldimethysilyl-10-hydroxycamptothecin]
TEAE NCI-CTCAE Grade 1, No of Events (Cohort 1, N = 30): 178 | TEAE NCI-CTCAE Grade 1, patients (%) (Cohort 1, N = 30): (70.0) % | TEAE NCI-CTCAE Grade 2, No of Events (Cohort 1, N = 30): 94 | TEAE NCI-CTCAE Grade 2, patients (%) (Cohort 1, N = 30): (60.0) % | TEAE NCI-CTCAE Grade 3, No of Events (Cohort 1, N = 30): 63 | TEAE NCI-CTCAE Grade 3, patients (%) (Cohort 1, N = 30): (63.3) % | TEAE NCI-CTCAE Grade 4, No of Events (Cohort 1, N = 30): 5 | TEAE NCI-CTCAE Grade 4, patients (%) (Cohort 1, N = 30): (16.7) % | TEAE NCI-CTCAE Grade 5, No of Events (Cohort 1, N = 30): 0 | TEAE Nausea, patients (%) (Cohort 1, N = 30): 13.3% | TEAE Nervous System Disorders, patients (%) (Cohort 1, N = 30): (50.0) % | TEAE Neutropenia, patients (%) (Cohort 1, N = 30): 16.7% | TEAE Neutrophil count decreased, patients (%) (Cohort 1, N = 30): 16.7% | TEAE Not Related to AR-67, No of Events (Cohort 1, N = 30): 83 | TEAE Not Related to AR-67, patients (%) (Cohort 1, N = 30): (66.7) % | TEAE Platelet count decreased, patients (%) (Cohort 1, N = 30): 13.3% | TEAE Possibly Related to AR-67, No of Events (Cohort 1, N = 30): 146 | TEAE Possibly Related to AR-67, patients (%) (Cohort 1, N = 30): (66.7) % | TEAE Probably Related to AR-67, No of Events (Cohort 1, N = 30): 76 | TEAE Probably Related to AR-67, patients (%) (Cohort 1, N = 30): (40.0) % | TEAE Psychiatric Disorders, patients (%) (Cohort 1, N = 30): 30.0% | TEAE Respiratory, Thoracic, and Mediastinal Disorders, patients (%) (Cohort 1, N = 30): (30.0) % | TEAE Thrombocytopenia, patients (%) (Cohort 1, N = 30): 20% | TEAE Vascular Disorders, patients (%) (Cohort 1, N = 30): (23.3) % | TEAE Vision blurred, patients (%) (Cohort 1, N = 30): (10.0) % | TEAE Vomiting, patients (%) (Cohort 1, N = 30): 10.0% | TEAE White blood cell count decreased, patients (%) (Cohort 1, N = 30): 16.7% | TEAE leading to death, No of Events (Cohort 1, N = 30): 16 | TEAE leading to early discontinuation, No of Events (Cohort 1, N = 30): 5 | TEAE, No of Events (Cohort 1, N = 30): 346 | severe WBC count decreased, patients (%) (Cohort 1, N = 30): 10.0% | severe neutropenia, patients (%) (Cohort 1, N = 30): 16.7% | severe neutrophil count decreased, patients (%) (Cohort 1, N = 30): 10.0% | ≥1 TEAE leading to death, patients (%) (Cohort 1, N = 30): (3.3) % | 1 related SAE, patients (%) (Cohort 1, N = 30): (20.0) % | related SAE, No of Events (Cohort 1, N = 30): 10 | related TEAE, No of Events (Cohort 1, N = 30): 258 | ≥1 related TEAE, patients (%) (Cohort 1, N = 30): (83.3) % | SAE blood and lymphatic system disorders, events (Cohort 2): 3 | SAE blood and lymphatic system disorders, patients (Cohort 2): 2 | SAE headache, patients (Cohort 2): 2 | SAE nervous system disorders, events (Cohort 2): 6 | SAE nervous system disorders, patients (Cohort 2): 6 | Death, No of Events (Cohort 2, N = 13): 2 | Death, patients (%) (Cohort 2, N = 13): (15.4) % | SAE, No of Events (Cohort 2, N = 13): 14 | TEAE Blood and Lymphatic System Disorders, events (Cohort 2, N = 13): 3 | TEAE Blood and Lymphatic System Disorders, patients (%) (Cohort 2, N = 13): 15.4% and 15% | TEAE Constipation, patients (%) (Cohort 2, N = 13): 15.4% and 15% | TEAE Convulsion, patients (%) (Cohort 2, N = 13): 7.7% | TEAE Definitely Related to AR-67, No of Events (Cohort 2, N = 13): 8 | TEAE Definitely Related to AR-67, patients (%) (Cohort 2, N = 13): (38.5) % | TEAE Diarrhoea, patients (%) (Cohort 2, N = 13): 15.4% and 15% | TEAE Eye Disorders, patients (%) (Cohort 2, N = 13): 7.7% | TEAE Gastrointestinal Disorders, patients (%) (Cohort 2, N = 13): 53.8% | TEAE General Disorders and Administration Site Conditions, patients (%) (Cohort 2, N = 13): 38.5% | TEAE Intensity Life Threatening, No of Events (Cohort 2, N = 13): 1 | TEAE Intensity Life Threatening, patients (%) (Cohort 2, N = 13): (7.7) % | TEAE Intensity Mild, No of Events (Cohort 2, N = 13): 20 | TEAE Intensity Mild, patients (%) (Cohort 2, N = 13): (53.8) % | TEAE Intensity Moderate, No of Events (Cohort 2, N = 13): 18 | TEAE Intensity Moderate, patients (%) (Cohort 2, N = 13): (30.8) % | TEAE Intensity Severe, No of Events (Cohort 2, N = 13): 14 | TEAE Intensity Severe, patients (%) (Cohort 2, N = 13): (61.5) % | TEAE Investigations SOC, events (Cohort 2, N = 13): 2 | TEAE Investigations, patients (%) (Cohort 2, N = 13): 7.7% | TEAE Metabolism and Nutrition Disorders, patients (%) (Cohort 2, N = 13): (15.4) % | TEAE Musculoskeletal and Connective Tissue Disorders, patients (%) (Cohort 2, N = 13): 23.1% | TEAE NCI-CTCAE Grade 1, No of Events (Cohort 2, N = 13): 17 | TEAE NCI-CTCAE Grade 1, patients (%) (Cohort 2, N = 13): (53.8) % | TEAE NCI-CTCAE Grade 2, No of Events (Cohort 2, N = 13): 16 | TEAE NCI-CTCAE Grade 2, patients (%) (Cohort 2, N = 13): (30.8) % | TEAE NCI-CTCAE Grade 3, No of Events (Cohort 2, N = 13): 16 | TEAE NCI-CTCAE Grade 3, patients (%) (Cohort 2, N = 13): (69.2) % | TEAE NCI-CTCAE Grade 4, No of Events (Cohort 2, N = 13): 3 | TEAE NCI-CTCAE Grade 4, patients (%) (Cohort 2, N = 13): (23.1) % | TEAE NCI-CTCAE Grade 5, No of Events (Cohort 2, N = 13): 0 | TEAE Nausea, patients (%) (Cohort 2, N = 13): 30.8% and 31% | TEAE Nervous System Disorders, patients (%) (Cohort 2, N = 13): 46.2% | TEAE Neutropenia, patients (%) (Cohort 2, N = 13): 7.7% | TEAE Not Related to AR-67, No of Events (Cohort 2, N = 13): 25 | TEAE Not Related to AR-67, patients (%) (Cohort 2, N = 13): (53.8) % | TEAE Possibly Related to AR-67, No of Events (Cohort 2, N = 13): 19 | TEAE Possibly Related to AR-67, patients (%) (Cohort 2, N = 13): (53.8) % | TEAE Probably Related to AR-67, No of Events (Cohort 2, N = 13): 1 | TEAE Probably Related to AR-67, patients (%) (Cohort 2, N = 13): (7.7) % | TEAE Psychiatric Disorders, patients (%) (Cohort 2, N = 13): 23.1% | TEAE Respiratory, Thoracic, and Mediastinal Disorders, patients (%) (Cohort 2, N = 13): (15.4) % | TEAE Thrombocytopenia, patients (%) (Cohort 2, N = 13): 7.7% | TEAE Vision blurred, patients (%) (Cohort 2, N = 13): 7.7% | TEAE Vomiting, patients (%) (Cohort 2, N = 13): 7.7% | TEAE leading to death, No of Events (Cohort 2, N = 13): 1 | TEAE leading to early discontinuation, No of Events (Cohort 2, N = 13): 5 | TEAE, No of Events (Cohort 2, N = 13): 55 | ≥1 TEAE leading to death, patients (%) (Cohort 2, N = 13): (7.7) % | 1 related SAE, patients (%) (Cohort 2, N = 13): (38.5) % | related SAE, No of Events (Cohort 2, N = 13): 9 | related TEAE, No of Events (Cohort 2, N = 13): 28 | ≥1 related TEAE, patients (%) (Cohort 2, N = 13): (76.9) % | patients with AEs documented as mild, moderate, and severe intensity (span over the three) (Safety Population): 58-69% | toxicities relative to comparator drug (comparison with published trials of the comparator): reduced toxicities relative to the toxicities induced by Etirinotecan treatment; also recorded: reduced toxicities relative to the toxicities induced by Karenitecin treatment; also recorded: reduced toxicities relative to the toxicities induced by Gimatecan treatment; also recorded: reduced toxicities relative to the toxicities induced by Lomustine treatment; also recorded: does not display the severe dose limiting toxicities typical of the marketed standard, Irinotecan; also recorded: dramatically reduced toxicities relative to the toxicities induced by Irinotecan treatment | tolerability (in vivo): generally well tolerated | TEAEs leading to discontinuation from the nervous system disorders SOC, events (of the 10 TEAEs leading to discontinuation): Six | Diarrhoea Grades 3-5 (reGBM, single agent, N = 45): 0% | Nausea Grades 3-5 (reGBM, single agent, N = 45): 2% | Thrombocytopenia Grades 3-4 (reGBM, single agent, N = 45): 4% | Vomiting Grades 3-5 (reGBM, single agent, N = 45): 0% | Neutropenia Grades 3-4 (reGBM, single agent, N = 45, All grade 3): 13% | Diarrhoea Grade 4 [1]: 0% | Nausea Grades 3,4 [1]: 2% | Neutropenia Grade 4 [1]: 0% | Vomiting Grades 3,4 [1]: 0%
